Data taken from US10471025B2, “Compositions for use in treating parkinson's disease and related disorders” (Technophage, Investigação E Desenvolvimento Em …, priority 2015, dated 2019).
Like-named read-outs stand apart in the source and are kept apart here.

Experiments:
[1] = tested on: 6-OHDA treated zebrafish larvae; assay: Locomotor behavior rescue (total distance moved, number of jumps) in 6-OHDA zebrafish PD model; assay type: in vivo; details: for Effective concentration / peak, small range plot: phenotype recovery, total distance moved
Description: To model Parkinson ̆s disease (PD), a neurotoxin 6-OHDA (6-hyroxydopamine) based method was used in zebrafish and in mice. In this model, 6-OHDA-lesions induce motor manifestations in zebrafish and in mice, such as reduced locomotor ability, and the loss of dopaminergic neurons. Based on the 6-OHDA PD zebrafish model, compounds from a small molecules library were screened for rescue of the parkinsonian phenotype (Example 1, see below).
The screen was based on both the recovery of impaired locomotor behavior and dopaminergic neuronal loss.
Values were normalized for the mean of disease state in each experiment (disease=1). Each plot contains data from 3 independent experiments with a total of 24 larvae. As a control, zebrafish were treated with only the vehicle, ascorbic acid.
For these experiments, Tubingen (TU) wild-type zebrafish, a specific strain of wild-type zebrafish, were used.

[2] = tested on: 6-OHDA treated zebrafish larvae; assay: Rescue of Tyrosine hydroxylase (TH)-positive dopaminergic neurons in 6-OHDA zebrafish larvae; assay type: in vivo; details: for Neurorescue: TH+ neurons at optimal dose, p; for Neuroprotective effect / recovery of TH+ neurons: at the optimal concentration of each molecule
Description: The 7 candidates also were tested in terms of rescue of dopaminergic neurons positive for Tyrosine hydroxylase (Th) in the substancia nigra pars compacta of the test animals. […] Results were normalized for healthy control values (healthy control=100% of neurons). As a control, zebrafish were treated with only the vehicle, ascorbic acid. ‘6-OHDA_ represents results in zebrafish receiving no treatment.
FIGS. 6E-6G show representative Z-projections of confocal stacks of whole-mount anti-TH immunohistochemistry in 6 days post-fertilization (dpf) of zebrafish larvae (age of the fish) control (FIG. 6E), 6-OHDA (FIG. 6F), and tapentadol treated-larvae (FIG. 6G).

[3] = tested on: 6-OHDA treated zebrafish larvae; assay: Co-administration with L-Dopa, total distance 6-OHDA larvae move; assay type: in vivo; details: total distance; L-Dopa 250 or 125 μM
[4] = in water; cited from earlier work
[5] = tested on: rat; details: rat, cited from earlier work
[6] = sc; cited from earlier work
[7] = in vivo, cited from earlier work
[8] = tested on: 6-OHDA treated zebrafish larvae; assay: LD50 / lethality in the disease context of the zebrafish model; details: 6-OHDA disease-induced zebrafish larvae
[9] = tested on: 6-OHDA treated zebrafish larvae; assay: Freezing (duration of freezing periods, light/dark stimulus) in 6-OHDA zebrafish larvae; assay type: in vivo; details: tapentadol 48.5, stavudine 50, nabumetone 0.91 μM; L-Dopa treatment
Description: In the zebrafish model, the locomotor impairment was measured and related with bradykinesia in patients. Tests included evaluating ‘freezing_ in response to a light/dark stimulus. 6-OHDA induced larvae had fewer freezing episodes but spent longer periods in the frozen state. In previous studies, the duration of freezing episodes has been analyzed in PD patients. […] Nonetheless, it is an inhibitor of the neuronal dopamine transporter and since 6-OHDA needs DAT to enter the neuron and induce the disease, methylphenidate may be a false positive.
As FIGS. 9B-9C show, freezing recovery was tested using 7 candidate molecules at optimal concentrations, in an exemplary experiment with n=8 fish, and methylphenidate and amantadine at 25 ? M.

[10] = tested on: 6-OHDA mouse model; assay: Cylinder test, 6-OHDA mice (Example 5); assay type: in vivo; details: vs 6-OHDA group; daily i.p.
[11] = tested on: 6-OHDA mouse model; assay: Abnormal involuntary movements, 6-OHDA mice (Example 5); assay type: in vivo; details: mouse, in vivo
Description: This condition results in a range of involuntary movements that can be evaluated by video tracking analyses. […] Evaluations were performed during two independent trials, 30 and 90 minutes after treatment administration. […] Nonetheless, forelimb and orofacial involuntary movements are extremely hard to detect, and reading errors occur, considering the size of the animals. Total abnormal involuntary movements are the sum of all 4 different involuntary movements evaluated and is the parameter often reported in the literature.
As FIGS. 17A-17F show, abnormal involuntary movements were evaluated using the cylinder test 28 days post injection. […] Values mean ě SEM (n=5-8).

[12] = tested on: 6-OHDA mouse model; assay: Open field test, 6-OHDA mice (Example 5); assay type: in vivo; details: 9 days post lesion, vs 6-OHDA group
Description: Open field testing evaluates mainly spontaneous activity. […] Four different parameters were recorded: maximum velocity (FIGS. 18A, 19A, and 20A), total distance moved (FIGS. 18B, 19B, and 20B), mean velocity (FIGS. 18C, 19C, and 20C), and latency to first reach the walls (FIGS. 18D, 19D, and 20D). All parameters were determined by the analysis of a 5 minute video, recorded 30 minutes after therapeutic administration. Values mean ě SEM (n=3-8).
For total distance moved (FIGS. 18B, 19B, and 20B) and mean velocity (FIGS. 18C, 19C, and 20C), an hour video also was analyzed for an animal per group, to evaluate the effect of the drug with time. For these analyses, a 5 minute video prior to therapeutic administration also was taken. […] Ethovision V10 system was used for making the videos for analysis.

SMILES	Effective concentration / peak, small range plot [1]	Neurorescue [2]	Neuroprotective effect / recovery of TH+ neurons [2]	Effect of co-administration with L-Dopa on locomotor recovery [3]	Solubility [4]	LD50 [5]	Effective rat dose [6]	Oral bioavailability ([7]; po)	Half-life [7]	LD50 [8]	Optimal concentration ([1]; behavioral experiments and TH+ cell counts)	Neuroprotection of TH+ neurons ([2]; where the disease is less severe (sig *), preliminary)	Duration of freezing periods, recovery vs 6-OHDA treated larvae [9]	Cylinder test: number of rearings [10]	Cylinder test: percentage of animals with tremor [10]	Cylinder test: percentage of contralateral paw use [10]	Induction of abnormal involuntary movements [11]	Open field: latency to first reach the walls [12]	LD50 ([5]; in vivo, po)
C#CCN[C@@H]1CCc2ccccc21 [Rasagiline]	25 µM	confirmed P < 0.11	confirmed	increased effect	53 mg/ml in	300 mg/kg	0.8 mg/kg/day	35%	1.5 to 3.5 h	187.5 | M									
N[C@@H](Cc1ccc(O)c(O)c1)C(=O)O [L-Dopa, Levodopa]	100 µM	no	does not induce the recovery of TH+ neurons		3.3 mg/ml in					>5 mM	250 µM	can be neuroprotective	no recovery	no difference	motor recovery was observed	motor recovery was observed	induced these involuntary movements	did not show motor improvement	1780 mg/kg
